# Values joined by “and” are separate entries in the source; they are usually repeats but may differ in a detail not shown here. Equal values may be shown once.
# Experiments:
# [1] = oral toxicity (mortality) in the mouse; settings: in vivo, Swiss mice
# Procedure: (§1) The percentages of mortality produced by the compounds of this invention when administered orally to Swiss mice are shown in Table 1. The animals, free from specific pathogenic organisms were housed in an air conditioned room for 24 to 48 hours before the start of the experiment. They were separated into groups of 5 males and 5 females. The materials were administered to animals which had been fasted for 24 hours by means of a gastric tube in suspension in a 6% thickened julep using a volume equivalent to 0.1 ml per 10 g of body weight. […] They remained under observation for two weeks before being sacrificed and autopsied.
# stomachs = experiment: ulcerogenic activity; format: in vivo, female Wistar rat; settings: 150 mg/kg daily
# Procedure: The ulcerogenic activity was determined in the female Wistar rat using a variation of the procedure described by J. M. Lwoff, J. Pharmacol. 1971, 3, 1, 81-3. The test substance was administered daily for 3 days to the animals maintained on a aqueous diet. The stomachs were removed after 1, 2, and 3 days of treatment and the ulcerations were classified from 0 to 4. The ulceration index is calculated for each group of animals as the product (average of the classes x the percentage of animals afflicted), while distinguishing acute ulcerations from ulcers which were in the process of healing.
# Wistar rat = experiment: oral toxicity (mortality) in the Wistar rat; format: in vivo; settings: 2000 mg/kg
# Procedure: as §1
# The toxicities of the compounds of Examples 2 and 3 were determined in the Wistar rat. The protocol which was followed was the same as that described for the mice, except that the compounds were administered in a volume equivalent to 0.5 ml per 100 g of body weight of rat. […] The product of Example 3 produced no mortality at 2000 mg/kg and 20% mortality at 3000 mg/kg.
# blood sugar level = experiment: antidiabetic activity, blood sugar level in streptozotocin hyperglycemic rats; format: in vivo, Female rats; parameters: key: NS: the difference between the blood sugar level in the treated animals and the control animals is not significant; the difference is significant by Student's test at p≤0.05; settings: oral
# Procedure: Female rats weighing 180-200 grams were given an intraperitoneal dose on day J0 of 100 mg/kg of streptozotocin in a 0.05 M citrate buffer at a pH of 4.5 calculated as 0.5 ml per 100 g of body weight. On day J2 hyperglycemic animals were selected by determining the blood sugar level by the orthotoludine method in a stream continuously removed from the retroorbital sinus. […] On day J3, without previous fasting, the selected animals received the treatment. This consisted of oral administration of the test compound in a 6% aqueous suspension of gum arabic at a volume of 0.5 ml per 100 g of body weight.
# The animals were sacrificed one, two, or four hours after the treatment and their blood sugar levels were determined. Each group of animals was compared to a control group of animals which received only the suspension of gum arabic. Metformin was the substance chosen as the control.
# The results are given in Table 8 which indicates the percentage of decrease in the blood sugar level produced by the treatment.
# cotton pellet granulomas = experiment: inhibition of cotton pellet granulomas; format: in vivo, male Sprague-Dawley rats; settings: oral, daily for 10 days, dose 150
# Procedure: Two cotton pellets weighing 70 mg were implanted under the back skin of male Sprague-Dawley rats anesthetized with ether. Starting the next day, the compound was administered orally daily for 10 days. The rats were sacrificed and the pellets were removed and weighed before and after drying at 50° C. for 24 hours. The weights used were those obtained after deduction of the weight of the implants. The average of the quantities so calculated was determined for each group and compared to the averages of the control group.
# [2] = test system: carrageenan-induced granulomas; experiment: activity on carrageenan-induced granulomas; format: in vivo, Male Wistar rats
# Procedure: Male Wistar rats weighing 130 to 150 grams were given a subcutaneous injection in the central part of the skin of the back of 0.5 ml of an aqueous suspension of carrageenan. Two doses of the test substance are administered, one 30 minutes before and the other 6 hours after carrageenan. At the end of 24 hours the rats were sacrificed and the granulomas were removed and weighed before and after drying for 24 hours at 50° C. The difference in weight of the granulomas wet and dry represents the exudate
# These AD50 are respectively 175(142-215) and 175(150-205) mg/kg.
# carageenan-induced edema = experiment: inhibition of carrageenan-induced edema; format: in vivo, male Wistar rat; settings: oral
# Procedure: The inflammation is produced in the male Wistar rat by injection of 0.1 ml of a 0.5% suspension of carageenan in physiological serum, into the muscular fascia of the metatarsal region of the hind foot of the animal. The test substance is administered orally at the same time as the carageenan or 30 or 60 min before carageenan. The edema is measured by plethysmometry three hours after the adminstration of the carrageenan.
# [3] = test system: edema produced by serotonin; experiment: inhibition of serotonin-induced edema; format: in vivo, Wistar rat; settings: oral, 30 minutes before serotonin
# Procedure: In the Wistar rat inflammation is induced by intrapedal injection of 0.1 ml of a 0.02% solution of serotonin in physiological serum. The test substance is administered orally 30 minutes before the serotonin and the edema is measured by plethysmometry one hour after its release.
smiles,measurement,setting,value
"C(=Nc1ccc2c(c1)OCO2)c1cccnc1 [Example 3, N-(3-pyridylidene)-5-aminobenzodioxole-1,3]",mortality at 336 h,[1]; 500 mg/kg,0%
same,mortality at 336 h,[1]; 1000 mg/kg,10%
same,mortality at 336 h,[1]; 2000 mg/kg,100%
same,"Ulceration Index, acute",stomachs; Day 1,6
same,"Ulceration Index, healing",stomachs; Day 1,0
same,"Ulceration Index, acute",stomachs; Day 2,20
same,"Ulceration Index, healing",stomachs; Day 2,6
same,"Ulceration Index, acute",stomachs; Day 3,33
same,"Ulceration Index, healing",stomachs; Day 3,12
same,mortality (in words),Wistar rat,no mortality
same,Percentage Decrease in the Blood Sugar,"blood sugar level; 50 mg/kg, treatment 1 h before sacrificing",16%
same,Percentage Decrease in the Blood Sugar,"blood sugar level; 50 mg/kg, treatment 2 h before sacrificing",NS
same,Percentage Decrease in the Blood Sugar,"blood sugar level; 50 mg/kg, treatment 4 h before sacrificing",23%
same,Percentage Decrease in the Blood Sugar,"blood sugar level; 100 mg/kg, treatment 1 h before sacrificing",NS
same,Percentage Decrease in the Blood Sugar,"blood sugar level; 100 mg/kg, treatment 2 h before sacrificing",27%
same,Percentage Decrease in the Blood Sugar,"blood sugar level; 100 mg/kg, treatment 4 h before sacrificing",29%
same,Percentage Decrease in the Blood Sugar,"blood sugar level; 200 mg/kg, treatment 1 h before sacrificing",NS
same,Percentage Decrease in the Blood Sugar,"blood sugar level; 200 mg/kg, treatment 2 h before sacrificing",19%
same,Percentage Decrease in the Blood Sugar,"blood sugar level; 200 mg/kg, treatment 4 h before sacrificing",28%
same,% inhibition with respect to dry pellets,cotton pellet granulomas,5%
same,% inhibition with respect to wet pellets,cotton pellet granulomas,0%
same,"Exudate, % activity",[2]; 100 mg/kg administered twice,15% and 25%
same,"Exudate, % animals 30% protected",[2]; 100 mg/kg administered twice,25% and 37%
same,"Weight of dry granuloma, % activity",[2]; 100 mg/kg administered twice,12% and 22%
same,"Weight of wet granuloma, % activity",[2]; 100 mg/kg administered twice,15% and 25%
same,"Weight of wet granuloma, % animals 30% protected",[2]; 100 mg/kg administered twice,25% and 37%
same,"Exudate, % activity",[2]; 200 mg/kg administered twice,27% and 34% and 38%
same,"Weight of dry granuloma, % activity",[2]; 200 mg/kg administered twice,27% and 32% and 33%
same,"Weight of wet granuloma, % activity",[2]; 200 mg/kg administered twice,27% and 33% and 34%
same,"Exudate, % activity",[2]; 250 mg/kg administered twice,36%
same,"Exudate, % animals 30% protected",[2]; 250 mg/kg administered twice,75%
same,"Weight of dry granuloma, % activity",[2]; 250 mg/kg administered twice,33%
same,"Weight of dry granuloma, % animals 30% protected",[2]; 250 mg/kg administered twice,62%
same,"Weight of wet granuloma, % activity",[2]; 250 mg/kg administered twice,36%
same,"Weight of wet granuloma, % animals 30% protected",[2]; 250 mg/kg administered twice,75%
same,"Exudate, % activity",[2]; 300 mg/kg administered twice,35% and 43%
same,"Exudate, % animals 30% protected",[2]; 300 mg/kg administered twice,87% and 75%
same,"Weight of dry granuloma, % activity",[2]; 300 mg/kg administered twice,37% and 41%
same,"Weight of dry granuloma, % animals 30% protected",[2]; 300 mg/kg administered twice,62% and 75%
same,"Weight of wet granuloma, % activity",[2]; 300 mg/kg administered twice,35% and 43%
same,"Weight of wet granuloma, % animals 30% protected",[2]; 300 mg/kg administered twice,87% and 75%
same,ED50,"[2]; Rattus norvegicus, 24 h, dose which protects 50% of the animals to the extent of 30% with respect to wet weight of the granuloma, read-out: AD50 (the source's name)",175 mg/kg
same,% inhibiting activity on carrageenan-induced edema,"carageenan-induced edema; To - 30 (30 min before carrageenan), 25 mg/kg",34%
same,% inhibiting activity on carrageenan-induced edema,"carageenan-induced edema; To - 30, 50 mg/kg",41% and 38%
same,% inhibiting activity on carrageenan-induced edema,"carageenan-induced edema; To - 30, 75 mg/kg",44%
same,% inhibiting activity on carrageenan-induced edema,"carageenan-induced edema; To - 30, 100 mg/kg",50% and 41%
same,% inhibiting activity on carrageenan-induced edema,"carageenan-induced edema; To - 30, 150 mg/kg",53%
same,% inhibiting activity on carrageenan-induced edema,"carageenan-induced edema; To - 30, 200 mg/kg",66%
same,% inhibiting activity on carrageenan-induced edema,"carageenan-induced edema; To - 30, 400 mg/kg",67% and 72%
same,% inhibiting activity on carrageenan-induced edema,"carageenan-induced edema; To - 60 (60 min before carrageenan), 25 mg/kg",25%
same,% inhibiting activity on carrageenan-induced edema,"carageenan-induced edema; To - 60, 50 mg/kg",42%
same,% inhibiting activity on carrageenan-induced edema,"carageenan-induced edema; To - 60, 75 mg/kg",40%
same,% inhibiting activity on carrageenan-induced edema,"carageenan-induced edema; To - 60, 100 mg/kg",39%
same,% inhibiting activity on carrageenan-induced edema,"carageenan-induced edema; To - 60, 200 mg/kg",58%
same,% inhibiting activity on carrageenan-induced edema,"carageenan-induced edema; To - 60, 400 mg/kg",69%
same,% inhibiting activity on carrageenan-induced edema,"carageenan-induced edema; at To, 100 mg/kg",57% and 29%
same,% inhibiting activity on carrageenan-induced edema,"carageenan-induced edema; at To, 200 mg/kg",28% and 36%
same,% inhibiting activity on carrageenan-induced edema,"carageenan-induced edema; at To, 400 mg/kg",55% and 39%
same,% inhibitory activity on serotonin edema,[3]; 100 mg/kg,27%
same,% inhibitory activity on serotonin edema,[3]; 200 mg/kg,21%
same,% inhibitory activity on serotonin edema,[3]; 400 mg/kg,26%

# — patent US4333938A, “Imino derivatives of 5-aminobenzodioxole-1,3 which are useful as medicaments” (Laboratoires Sarget, priority 1979, dated 1982)
